Assay results: patent publication US4820694A, “Modifications of 3-O-demethylmycinose in macrocin and lactenocin” (priority 1986, dated 1989)
≈ marks a conversion by molar mass, not a printed value. Read-outs that look alike come from different tables or passages of the source.

Key:
Escherichia coli EC14 = test: standard agar-dilution MIC assay; assay type: cell-based
Procedure: (§1) The MIC's in Table III were determined by standard agar-dilution assays. The MIC's in Table IV were obtained using conventional brothdilution microtiter tests.

[1] = test system: Klebsiella pneumoniae X68; test: standard agar-dilution MIC assay; assay type: cell-based; details: Klebsiella pneumoniae, X68
Procedure: as §1

[2] = test system: Pseudomonas aeruginosa X239; test: standard agar-dilution MIC assay; assay type: cell-based; details: Pseudomonas aeruginosa, X239
Procedure: as §1

[3] = test system: Staphylococcus aureus V41; test: standard agar-dilution MIC assay; assay type: cell-based; details: Staphylococcus aureus, V41
Procedure: as §1

[4] = test system: Staphylococcus aureus X1.1; test: standard agar-dilution MIC assay; assay type: cell-based; details: Staphylococcus aureus, X1.1
Procedure: as §1

[5] = test system: Staphylococcus aureus X400; test: standard agar-dilution MIC assay; assay type: cell-based; details: Staphylococcus aureus, X400
Procedure: as §1

[6] = test system: Staphylococcus epidermidis EP12; test: standard agar-dilution MIC assay; assay type: cell-based
Procedure: as §1

[7] = test system: Staphylococcus epidermidis EPI1; test: standard agar-dilution MIC assay; assay type: cell-based; details: Staphylococcus epidermidis, EPI1
Procedure: as §1

[8] = test system: Streptococcus Group D 9960; test: standard agar-dilution MIC assay; assay type: cell-based; details: GROUPD9960, read-out: MIC
Procedure: as §1

[9] = test system: Streptococcus Group D X66; test: standard agar-dilution MIC assay; assay type: cell-based; details: read-out: MIC
Procedure: as §1

[10] = test system: Streptococcus pyogenes C203; test: standard agar-dilution MIC assay; assay type: cell-based; details: Streptococcus pyogenes, C203
Procedure: as §1

[11] = test system: Staphylococcus aureus S13E; test: microbe, parasite or virus in culture; assay type: cell-based; details: Staphylococcus aureus, S13E
Procedure: as §1

[12] = test system: Streptococcus pneumoniae Park I; test: microbe, parasite or virus in culture; assay type: cell-based; details: Streptococcus pneumoniae
Procedure: as §1

[13] = test system: Bordetella bronchiseptica; test: broth-dilution microtiter MIC test; assay type: cell-based; details: Bordetella bronchiseptica
Procedure: as §1

[14] = test system: Mycoplasma gallisepticum 15E; test: broth-dilution microtiter MIC test; assay type: cell-based; details: Mycoplasmoides gallisepticum, 15E
Procedure: as §1

[15] = test system: Mycoplasma gallisepticum 29C; test: broth-dilution microtiter MIC test; assay type: cell-based; details: Mycoplasmoides gallisepticum, 29C
Procedure: as §1

[16] = test system: Mycoplasma gallisepticum 36H; test: broth-dilution microtiter MIC test; assay type: cell-based; details: Mycoplasmoides gallisepticum, 36H
Procedure: as §1

Mycoplasma hyorhinis 29E = test: broth-dilution microtiter MIC test; assay type: cell-based; details: Mycoplasma, 29E
Procedure: as §1

Mycoplasma synoviae 40A = test: broth-dilution microtiter MIC test; assay type: cell-based; details: Mycoplasmopsis synoviae, 40A
Procedure: as §1

[17] = test system: Pasteurella hemolytica 22C; test: broth-dilution microtiter MIC test; assay type: cell-based; details: Pasteurella, 22C
Procedure: as §1

[18] = test system: Pasteurella hemolytica 23C; test: broth-dilution microtiter MIC test; assay type: cell-based; details: Pasteurella, 23C
Procedure: as §1

[19] = test system: Pasteurella hemolytica 41D; test: broth-dilution microtiter MIC test; assay type: cell-based; details: Pasteurella, 41D
Procedure: as §1

[20] = test system: Pasteurella multocida 17E; test: broth-dilution microtiter MIC test; assay type: cell-based; details: Pasteurella multocida, 17E
Procedure: as §1

[21] = test system: Pasteurella multocida 22A; test: broth-dilution microtiter MIC test; assay type: cell-based; details: Pasteurella multocida, 22A
Procedure: as §1

[22] = test system: Pasteurella multocida 40G; test: broth-dilution microtiter MIC test; assay type: cell-based; details: Pasteurella multocida, 40G
Procedure: as §1

[23] = test system: Pasteurella multocida 60A; test: broth-dilution microtiter MIC test; assay type: cell-based; details: Pasteurella multocida, 60A
Procedure: as §1

[24] = test system: Pasteurella multocida 68C; test: broth-dilution microtiter MIC test; assay type: cell-based; details: Pasteurella multocida, 68C
Procedure: as §1

[25] = test system: Staphylococcus aureus 19C; test: broth-dilution microtiter MIC test; assay type: cell-based; details: Staphylococcus aureus, 19C
Procedure: as §1

Streptococcus sp. 19F = test: broth-dilution microtiter MIC test; assay type: cell-based; details: Streptococcus, SP.19F
Procedure: as §1

[26] = test system: Streptococcus pyogenes C203; test: protection of mice experimentally infected with S. pyogenes C203; assay type: in vivo
Procedure: The formula 1 compounds have shown in vivo antimicrobial activity against experimentally-induced infections in laboratory animals. When two doses of test compound were administered to mice experimentally infected with S. pyrogenes C203, the activity observed was measured as an ED50 value [effective dose in mg/kg to protect 50% of the test animals: see Warren Wick, et al., J. Bacteriol. 81, 233-235 (1961)].
^a mg/kg × 2; doses given 1 and 4 hours postinfection

[27] = test system: Haemophilus influenzae 76; test: standard agar-dilution MIC assay; assay type: cell-based; details: Haemophilus influenzae, 76
Procedure: as §1

[28] = test system: Haemophilus influenzae C.L.; test: standard agar-dilution MIC assay; assay type: cell-based; details: Haemophilus influenzae
Procedure: as §1

[29] = test system: Staphylococcus epidermidis 222; test: standard agar-dilution MIC assay; assay type: cell-based; details: Staphylococcus epidermidis, 222
Procedure: as §1

[30] = broth-dilution microtiter, read-out: MIC
[31] = C203, Oral, mice, mg/kg × 2, doses given 1 and 4 hours postinfection, read-out: ED50
[32] = C203, sc, Subcutaneous, mice, mg/kg × 2, doses given 1 and 4 hours postinfection, read-out: ED50

Row | SMILES | MIC [3] [µg/mL] | MIC [4] [µg/mL] | MIC [5] [µg/mL] | MIC [7] [µg/mL] | MIC [8] [µg/mL] | MIC [9] [µg/mL] | MIC [10] [µg/mL] | MIC [11] [µg/mL] | MIC [12] [µg/mL] | MIC [14] [µg/mL] | MIC [15] [µg/mL] | MIC [16] [µg/mL] | MIC (Mycoplasma hyorhinis 29E) [µg/mL] | MIC (Mycoplasma synoviae 40A) [µg/mL] | MIC [20] [µg/mL] | MIC [24] [µg/mL] | MIC [25] [µg/mL] | MIC (Streptococcus sp. 19F) [µg/mL] | MIC [27] [µg/mL] | MIC [28] [µg/mL] | also measured
1 | CCC1OC(=O)CC(O)C(C)C(OC2OC(C)C(OC3CC(C)(O)C(O)C(C)O3)C(N(C)C)C2OC(C)=O)C(CC=O)CC(C)C(=O)C=CC(C)=CC1COC1OC(C)C(OC(=O)COc2ccccc2)C(O)C1OC (stereo not shown) [Compound 13, 2'-O-Acetyl-4'"-O-phenoxyacetyl-macrocin] | 1 (≈ 0.927 µM) | 1 (≈ 0.927 µM) | 2 (≈ 1.85 µM) | 1 (≈ 0.927 µM) | 1 (≈ 0.927 µM) | 1 (≈ 0.927 µM) | 1 (≈ 0.927 µM) | 2 (≈ 1.85 µM) | 0.25 (≈ 0.232 µM) | 12.5 (≈ 11.6 µM) | 0.39 (≈ 0.362 µM) | 12.5 (≈ 11.6 µM) | 3.12 (≈ 2.89 µM) | 0.39 (≈ 0.362 µM) | 50 (≈ 46.4 µM) | 50 (≈ 46.4 µM) | 3.12 (≈ 2.89 µM) | 1.56 (≈ 1.45 µM) |  |  | MIC (Escherichia coli EC14; agar-dilution, read-out: MIC): > 128 µg/mL; MIC ([1]; agar-dilution, read-out: MIC): > 128 µg/mL; MIC ([2]; agar-dilution, read-out: MIC): > 128 µg/mL; MIC [6]: 2 µg/mL (≈ 1.85 µM); MIC [13, 30]: > 50 µg/mL; MIC [17, 30]: > 50 µg/mL; MIC [18, 30]: > 50 µg/mL; MIC [19, 30]: > 50 µg/mL; MIC [21, 30]: > 50 µg/mL; MIC [22, 30]: > 50 µg/mL; MIC ([23]; broth-dilution microtiter, Avian isolate, read-out: MIC): > 50 µg/mL; ED50 [26, 31]: > 100 mg/kg; ED50 [26, 32]: 7.2 mg/kg
2 | CCC1OC(=O)CC(O)C(C)C(OC2OC(C)C(O)C(N(C)C)C2O)C(CC=O)CC(C)C(=O)C=CC(C)=CC1COC1OC(C)C(OC(=O)Cc2ccccc2)C(O)C1OC (stereo not shown) [Compound 30, 4"-O-Phenylacetyl-lactenocin] | 0.5 (≈ 0.571 µM) | 0.5 (≈ 0.571 µM) | 1 (≈ 1.14 µM) | 0.5 (≈ 0.571 µM) | 1 (≈ 1.14 µM) | 0.5 (≈ 0.571 µM) | 0.25 (≈ 0.285 µM) | 0.5 (≈ 0.571 µM) | 0.5 (≈ 0.571 µM) | 12.5 (≈ 14.3 µM) | 0.39 (≈ 0.445 µM) | 25 (≈ 28.5 µM) | 1.56 (≈ 1.78 µM) | 1.56 (≈ 1.78 µM) | 25 (≈ 28.5 µM) | 12.5 (≈ 14.3 µM) | 6.25 (≈ 7.13 µM) | 1.56 (≈ 1.78 µM) | 8 (≈ 9.13 µM) | 8 (≈ 9.13 µM) | MIC (Escherichia coli EC14): > 128 µg/mL; MIC [1]: > 128 µg/mL; MIC [2]: > 128 µg/mL; MIC [29]: 0.25 µg/mL (≈ 0.285 µM); MIC [13]: > 50 µg/mL; MIC [17]: 50 µg/mL (≈ 57.1 µM); MIC [18]: 25 µg/mL (≈ 28.5 µM); MIC [19]: 50 µg/mL (≈ 57.1 µM); MIC [21]: 25 µg/mL (≈ 28.5 µM); MIC [22]: 25 µg/mL (≈ 28.5 µM); MIC [23]: 25 µg/mL (≈ 28.5 µM)
3 | CCC1OC(=O)CC(O)C(C)C(OC2OC(C)C(O)C(N(C)C)C2O)C(CC=O)CC(C)C(=O)C=CC(C)=CC1COC1OC(C)C(OC(=O)COc2ccccc2)C(OC(=O)COc2ccccc2)C1OC (stereo not shown) [Compound 36, 3",4"-Di-O-phenoxyacetyl-lactenocin] | 2 (≈ 1.95 µM) | 2 (≈ 1.95 µM) | 2 (≈ 1.95 µM) | 2 (≈ 1.95 µM) | 2 (≈ 1.95 µM) | 2 (≈ 1.95 µM) | 0.5 (≈ 0.487 µM) | 2 (≈ 1.95 µM) | 1 (≈ 0.974 µM) | 12.5 (≈ 12.2 µM) | 0.39 (≈ 0.38 µM) | 12.5 (≈ 12.2 µM) | 6.25 (≈ 6.09 µM) | 1.56 (≈ 1.52 µM) | 50 (≈ 48.7 µM) | 25 (≈ 24.4 µM) | 1.56 (≈ 1.52 µM) | 0.78 (≈ 0.76 µM) | 32 (≈ 31.2 µM) | 32 (≈ 31.2 µM) | MIC (Escherichia coli EC14; agar-dilution, read-out: MIC): > 128 µg/mL; MIC ([1]; agar-dilution, read-out: MIC): > 128 µg/mL; MIC ([2]; agar-dilution, read-out: MIC): > 128 µg/mL; MIC [29]: 0.5 µg/mL (≈ 0.487 µM); MIC [13, 30]: > 50 µg/mL; MIC [17]: 50 µg/mL (≈ 48.7 µM); MIC [18]: 25 µg/mL (≈ 24.4 µM); MIC [19]: 25 µg/mL (≈ 24.4 µM); MIC [21]: 50 µg/mL (≈ 48.7 µM); MIC [22]: 50 µg/mL (≈ 48.7 µM); MIC [23]: 50 µg/mL (≈ 48.7 µM); ED50 [26, 31]: > 100 mg/kg; ED50 [26, 32]: 4.3 mg/kg
4 | CCC1OC(=O)CC(O)C(C)C(OC2OC(C)C(O)C(N(C)C)C2O)C(CC=O)CC(C)C(=O)C=CC(C)=CC1COC1OC(C)C(O)C(OC(=O)Cc2ccccc2)C1OC (stereo not shown) [Compound 32, 3"-O-Phenylacetyl-lactenocin] | 1 (≈ 1.14 µM) | 0.5 (≈ 0.571 µM) | 2 (≈ 2.28 µM) | 0.5 (≈ 0.571 µM) | 1 (≈ 1.14 µM) | 1 (≈ 1.14 µM) | 0.25 (≈ 0.285 µM) | 1 (≈ 1.14 µM) | 0.5 (≈ 0.571 µM) | 12.5 (≈ 14.3 µM) | 0.195 (≈ 0.223 µM) | 25 (≈ 28.5 µM) | 1.56 (≈ 1.78 µM) | 1.56 (≈ 1.78 µM) | 25 (≈ 28.5 µM) | 12.5 (≈ 14.3 µM) | 1.56 (≈ 1.78 µM) | 1.56 (≈ 1.78 µM) | 8 (≈ 9.13 µM) | 8 (≈ 9.13 µM) | MIC (Escherichia coli EC14): > 128 µg/mL; MIC [1]: > 128 µg/mL; MIC [2]: > 128 µg/mL; MIC [29]: 0.25 µg/mL (≈ 0.285 µM); MIC [13]: > 50 µg/mL; MIC [17]: 25 µg/mL (≈ 28.5 µM); MIC [18]: 25 µg/mL (≈ 28.5 µM); MIC [19]: 25 µg/mL (≈ 28.5 µM); MIC [21]: 25 µg/mL (≈ 28.5 µM); MIC [22]: 25 µg/mL (≈ 28.5 µM); MIC [23]: 25 µg/mL (≈ 28.5 µM); ED50 ([26]; C203, sc): 4.4 mg/kg
